Measurements as given in US10435396B2, “2-substituted indazoles, methods for producing same, pharmaceutical preparations that contain same, and use of same to produce drugs” (Bayer Pharma Aktiengesellschaft, priority 2016, dated 2019).

System: human PBMCs
Test: In vitro LPS-induced cytokine production in human PBMCs
Assay type: cell-based
Settings: 0.1 μg/ml LPS, 24 hours
Protocol: In Vitro LPS (Lipopolysaccharide)-Induced Cytokine Production in Human PBMCs (Peripheral Blood Mononuclear Cells)
The effect of the inventive compounds of the general formula (I) on induced cytokine production in human PBMCs was examined. Cytokine production was induced here by LPS, a TLR4 ligand, which leads to activation of the IRAK4-mediated signal path.
The human PBMCs were obtained from anti-coagulated human whole blood. To this end, 15 ml of Ficoll-Paque (Biochrom, Cat. No. L6115) were initially charged in Leucosep tubes and 20 ml of human blood were added. After centrifugation of the blood at 800 g for 15 min at room temperature, the plasma including the platelets was removed and discarded. The PBMCs were transferred into centrifugation tubes and made up with PBS (phosphate-buffered saline) (Gibco, Cat. No. 14190). The cell suspension was centrifuged at room temperature at 250 g for 10 min and the supernatant was discarded. The PBMCs were resuspended in complete medium (RPMI 1640, without L-glutamine (PAA, Cat. No. E15-039), 10% FCS; 50 U/ml penicillin, 50 μg/ml streptomycin (PAA, Cat. No. P11-010) and 1% L-glutamine (Sigma, Cat. No. G7513)).
The assay was also carried out in complete medium. The PBMCs were sown in 96-well plates at a cell density of 2.5×10^5 cells/well. The compounds according to the invention were subjected to serial dilution in a constant volume of 100% DMSO and used in the assay at 8 different concentrations in the range from 10 μM to 3 nM such that the final DMSO concentration was 0.4% DMSO. Prior to the actual stimulation, the cells were then pre-incubated therewith for 30 min. […] Cell viability was determined using the CellTiter-Glo luminescent assay (Promega, Cat. No. G7571 (G755/G756A)) in accordance with the manufacturer's instructions. The amount of secreted TNF-α in the cell culture supernatant was determined using the Human ProInflammatory 9-Plex Tissue Culture Kit (MSD, Cat. No. K15007B) in accordance with the instructions of the manufacturer. […]

Row | Structure (SMILES) | activity (secreted TNF-α, LPS-induced cytokine production in human PBMCs) [µM]
1 | CC(C)(O)c1cc2nn(C3CCS(=O)(=O)CC3)cc2cc1NC(=O)c1cccc(C(F)(F)F)n1 [Example 44, N-[2-(1,1-Dioxidotetrahydro-2H-thiopyran-4-yl)-6-(2-hydroxypropan-2-yl)-2H-indazol-5-yl]-6-(trifluoromethyl)pyridine-2-carboxamide] | ≤ 1
2 | CC(C)(O)c1cc2nn(C3CCNCC3)cc2cc1NC(=O)c1cccc(C(F)(F)F)n1 [Example 46, N-[6-(2-Hydroxypropan-2-yl)-2-(piperidin-4-yl)-2H-indazol-5-yl]-6-(trifluoromethyl)pyridine-2-carboxamide] | ≤ 1
